Laboratory results as given in EP0431327B1, “Synthetic vaccine for the specific induction of cytotoxic T-lymphocytes” (HOECHST AKTIENGESELLSCHAFT, priority 1989, dated 1991).

Tested on: Influenza-Virus A/PR/8
Assay: Protection of immunised mice against intranasal influenza virus infection (survival, body weight)
Assay type: in vivo, BALB/c-Inzuchtmäuse
Description: Unter SPF-Bedingungen gezüchtete, 3 Monate alte BALB/c-Inzuchtmäuse wurden intravenös mit 100 µg Pam₃cys-Ser-Ser-[NP 147-158] immunisiert. (100 µg Pam₃Cys-Ser-Ser-[NP 147-158], aufgenommen in 300 µl PBS, 1 min beschallt). Nach 28 Tagen wurden die Mäuse mit 0,2 bzw. 0,4 haemagglutinierenden Einheiten Influenza-Virus A/PR/8 intranasal infiziert. Analog wurden zur Kontrolle Mäuse infiziert, denen 300 µl PBS intravenös appliziert wurde. Der Verlauf der Infektion wurde anhand von täglichen Gewichtskontrollen und der Überlebensrate kontrolliert. 11 von 12 Kontrolltieren, die mit 0,4 haemagglutinierenden Einheiten infiziert wurden, starben nach 11 Tagen an der Virusinfektion, während von den immunisierten Tieren nur 4 von 12 starben.
Eine weitere Kontrollgruppe und eine mit Pam₃Cys-Ser-Ser-[NP 147-158] immunisierte Gruppe wurden mit 0,2 haemagglutinierenden Einheiten Influenza-Virus infiziert. Nach 18 Tagen lebten noch 40 % der Kontrolltiere (4 von 10 Tieren), während 75 % der immunisierten Tiere lebten. Am Tag 18 betrug die Gewichtsdifferenz zwischen immunisierten Tieren und Kontrolltieren 4 g.

Substance: N-Palmitoyl-S-[2,3-(bispalmitoyloxy)-propyl]cysteinyl-seryl-seryl-NP 147-158 [Pam₃Cys-Ser-Ser-[NP 147-158]]
- Verlauf der Infektion (Gewicht) (0,2 haemagglutinating units, after day 18, surviving controls kept losing weight): langsam von der Infektion erholten
- Gewichtsdifferenz zwischen immunisierten Tieren und Kontrolltieren (0,2 haemagglutinating units, day 18): 4 g
- immunisierte Tiere, die an der Virusinfektion starben (100 µg i.v. in 300 µl PBS, after 28 days infected intranasally with 0,4 haemagglutinating units, deaths after 11 days, PBS controls 11 von 12): 4 von 12
- lebende immunisierte Tiere (immunised group infected with 0,2 haemagglutinating units, after 18 days, controls 40 %): 75%
